Measurements from ChEMBL document CHEMBL3885861, “Open TG-GATES”.

Species on record: Rattus norvegicus
Assay: Open TG-GATES - Regimen: Daily Repeat
Format: toxicity, organism-based, Sprague-Dawley
Set-up: regimen Daily Repeat, gender Male, age 6 weeks
Conditions: in vivo, po, 100 mg/kg, route gavage, dose level Low; for APTT / Bas / Eos / Fbg / Hb / Ht / Lym / MCH / MCHC / MCV / Mono / Neu / PT / Plat / RBC / Ret / WBC: tissue Blood; for KIDNEY_L / KIDNEY_R / KIDNEY_TOTAL: tissue Kidney; for LIVER: tissue Liver; for A/G / ALP / ALT / AST / BUN / CRE / Ca / Cl / DBIL / GLC / IP / K / LDH / Na / PL / RALB / TBIL / TC / TG / TP / gamma-GTP: tissue Plasma

C[C@H]1O[C@H](O[C@H]2[C@H](O)[C@@H](O)[C@@H](O[C@H]3[C@H](O)[C@@H](O)C(O)O[C@@H]3CO)O[C@@H]2CO)[C@H](O)[C@@H](O)[C@@H]1N[C@H]1C=C(CO)[C@@H](O)[C@H](O)[C@H]1O (some centres not stated) [ACARBOSE]
TERMINAL_BW (72 h, time 3 day): 233.2 g | APTT (72 h, time 3 day): 17.1 s | Bas (72 h, time 3 day): 0% | Eos (72 h, time 3 day): 1% | Fbg (72 h, time 3 day): 279.2 mg/dL | Hb (72 h, time 3 day): 13.2 g/dL | Ht (72 h, time 3 day): 39.4% | Lym (72 h, time 3 day): 79.4% | MCH (72 h, time 3 day): 20.4 pg | MCHC (72 h, time 3 day): 33.5% | MCV (72 h, time 3 day): 61 fL | Mono (72 h, time 3 day): 2.6% | Neu (72 h, time 3 day): 15.4% | PT (72 h, time 3 day): 13.3 s | Plat (72 h, time 3 day): 126 x10_4/uL | RBC (72 h, time 3 day): 646.8 x10_4/ul | Ret (72 h, time 3 day): 6.7% | WBC (72 h, time 3 day): 97.6 x10_2/uL | KIDNEY_L (72 h, time 3 day): 1 g | KIDNEY_R (72 h, time 3 day): 1 g | KIDNEY_TOTAL (72 h, time 3 day): 2.1 g | LIVER (72 h, time 3 day): 11.3 g | A/G (72 h, time 3 day): 0.9 | ALP (72 h, time 3 day): 1544.2 IU/L | ALT (72 h, time 3 day): 40.2 IU/L | AST (72 h, time 3 day): 70.2 IU/L | BUN (72 h, time 3 day): 13.8 mg/dL | CRE (72 h, time 3 day): 0.2 mg/dL | Ca (72 h, time 3 day): 10.7 mg/dL | Cl (72 h, time 3 day): 103.8 meq/L | DBIL (72 h, time 3 day): 0.01 mg/dL | GLC (72 h, time 3 day): 182 mg/dL | IP (72 h, time 3 day): 7.5 mg/dL | K (72 h, time 3 day): 3.9 meq/L | LDH (72 h, time 3 day): 84.2 IU/L | Na (72 h, time 3 day): 140.6 meq/L | PL (72 h, time 3 day): 142.4 mg/dL | RALB (72 h, time 3 day): 2.6 g/dL | TBIL (72 h, time 3 day): 0.056 mg/dL | TC (72 h, time 3 day): 72.2 mg/dL | TG (72 h, time 3 day): 101.8 mg/dL | TP (72 h, time 3 day): 5.6 g/dL | gamma-GTP (72 h, time 3 day): 1 IU/L | TERMINAL_BW ([…], time 7 day): 267.4 g | TERMINAL_BW ([…], time 14 day): 335.4 g | TERMINAL_BW ([…], time 28 day): 407.8 g | APTT ([…], time 7 day): 17.6 s | Bas ([…], time 7 day): 0% | Eos ([…], time 7 day): 1% | Fbg ([…], time 7 day): 291.8 mg/dL | Hb ([…], time 7 day): 13.8 g/dL | Ht ([…], time 7 day): 40.9% | Lym ([…], time 7 day): 73.6% | MCH ([…], time 7 day): 21.2 pg | MCHC ([…], time 7 day): 33.6% | MCV ([…], time 7 day): 63 fL | Mono ([…], time 7 day): 3% | Neu ([…], time 7 day): 21.6% | PT ([…], time 7 day): 12.9 s | Plat ([…], time 7 day): 130.6 x10_4/uL | RBC ([…], time 7 day): 649.8 x10_4/ul | Ret ([…], time 7 day): 6.1% | WBC ([…], time 7 day): 81.1 x10_2/uL | APTT ([…], time 14 day): 17.6 s | Bas ([…], time 14 day): 0% | Eos ([…], time 14 day): 1.4% | Fbg ([…], time 14 day): 290.2 mg/dL | Hb ([…], time 14 day): 14.9 g/dL | Ht ([…], time 14 day): 44.1% | Lym ([…], time 14 day): 80.6% | MCH ([…], time 14 day): 20.7 pg | MCHC ([…], time 14 day): 33.7% | MCV ([…], time 14 day): 61.4 fL | Mono ([…], time 14 day): 2.6% | Neu ([…], time 14 day): 15% | PT ([…], time 14 day): 13.2 s | Plat ([…], time 14 day): 126.6 x10_4/uL | RBC ([…], time 14 day): 719.2 x10_4/ul | Ret ([…], time 14 day): 4.4% | WBC ([…], time 14 day): 98.7 x10_2/uL | APTT ([…], time 28 day): 18.7 s | Bas ([…], time 28 day): 0% | Eos ([…], time 28 day): 1% | Fbg ([…], time 28 day): 301 mg/dL | Hb ([…], time 28 day): 15.3 g/dL | Ht ([…], time 28 day): 44% | Lym ([…], time 28 day): 78.8% | MCH ([…], time 28 day): 19.6 pg | MCHC ([…], time 28 day): 34.7% | MCV ([…], time 28 day): 56.4 fL | Mono ([…], time 28 day): 1.4% | Neu ([…], time 28 day): 17.4% | PT ([…], time 28 day): 13.3 s | Plat ([…], time 28 day): 103.6 x10_4/uL | RBC ([…], time 28 day): 780.8 x10_4/ul | Ret ([…], time 28 day): 2.4% | WBC ([…], time 28 day): 101.5 x10_2/uL | KIDNEY_L ([…], time 7 day): 1.1 g | KIDNEY_R ([…], time 7 day): 1.1 g | KIDNEY_TOTAL ([…], time 7 day): 2.2 g | KIDNEY_L ([…], time 14 day): 1.3 g | KIDNEY_R ([…], time 14 day): 1.3 g | KIDNEY_TOTAL ([…], time 14 day): 2.6 g | KIDNEY_L ([…], time 28 day): 1.5 g | KIDNEY_R ([…], time 28 day): 1.4 g | KIDNEY_TOTAL ([…], time 28 day): 2.9 g | LIVER ([…], time 7 day): 12.2 g | LIVER ([…], time 14 day): 15.3 g | LIVER ([…], time 28 day): 16.8 g | A/G ([…], time 7 day): 0.9 | ALP ([…], time 7 day): 1544.4 IU/L | ALT ([…], time 7 day): 44 IU/L | AST ([…], time 7 day): 73.2 IU/L | BUN ([…], time 7 day): 15.8 mg/dL | CRE ([…], time 7 day): 0.2 mg/dL | Ca ([…], time 7 day): 10.9 mg/dL | Cl ([…], time 7 day): 104.2 meq/L | DBIL ([…], time 7 day): 0.008 mg/dL | GLC ([…], time 7 day): 176.4 mg/dL | IP ([…], time 7 day): 7.4 mg/dL | K ([…], time 7 day): 3.8 meq/L | LDH ([…], time 7 day): 76.8 IU/L | Na ([…], time 7 day): 141.8 meq/L | PL ([…], time 7 day): 148.4 mg/dL | RALB ([…], time 7 day): 2.6 g/dL | TBIL ([…], time 7 day): 0.052 mg/dL | TC ([…], time 7 day): 74.6 mg/dL | TG ([…], time 7 day): 103.6 mg/dL | TP ([…], time 7 day): 5.7 g/dL | gamma-GTP ([…], time 7 day): 0.8 IU/L | A/G ([…], time 14 day): 0.8 | ALP ([…], time 14 day): 1438.4 IU/L | ALT ([…], time 14 day): 36.2 IU/L | AST ([…], time 14 day): 62.8 IU/L | BUN ([…], time 14 day): 16 mg/dL | CRE ([…], time 14 day): 0.2 mg/dL | Ca ([…], time 14 day): 10.9 mg/dL | Cl ([…], time 14 day): 104.2 meq/L | DBIL ([…], time 14 day): 0.01 mg/dL | GLC ([…], time 14 day): 182 mg/dL | IP ([…], time 14 day): 6.7 mg/dL | K ([…], time 14 day): 4.2 meq/L | LDH ([…], time 14 day): 119.4 IU/L | Na ([…], time 14 day): 141.8 meq/L | PL ([…], time 14 day): 153.4 mg/dL | RALB ([…], time 14 day): 2.7 g/dL | TBIL ([…], time 14 day): 0.052 mg/dL | TC ([…], time 14 day): 75.4 mg/dL | TG ([…], time 14 day): 146.8 mg/dL | TP ([…], time 14 day): 6 g/dL | gamma-GTP ([…], time 14 day): 1 IU/L | A/G ([…], time 28 day): 0.8 | ALP ([…], time 28 day): 1221 IU/L | ALT ([…], time 28 day): 36.8 IU/L | AST ([…], time 28 day): 66.2 IU/L | BUN ([…], time 28 day): 17 mg/dL | CRE ([…], time 28 day): 0.2 mg/dL | Ca ([…], time 28 day): 10.8 mg/dL | Cl ([…], time 28 day): 104.8 meq/L | DBIL ([…], time 28 day): 0.018 mg/dL | GLC ([…], time 28 day): 179.8 mg/dL | IP ([…], time 28 day): 6.4 mg/dL | K ([…], time 28 day): 4.1 meq/L | LDH ([…], time 28 day): 79.6 IU/L | Na ([…], time 28 day): 142.4 meq/L | PL ([…], time 28 day): 149.2 mg/dL | RALB ([…], time 28 day): 2.8 g/dL | TBIL ([…], time 28 day): 0.056 mg/dL | TC ([…], time 28 day): 70 mg/dL | TG ([…], time 28 day): 156 mg/dL | TP ([…], time 28 day): 6.2 g/dL | gamma-GTP ([…], time 28 day): 1 IU/L
